According to ChEMBL document CHEMBL5034035, “Discovery of an Oxycyclohexyl Acid Lysophosphatidic Acid Receptor 1 (LPA1) Antagonist BMS-986278 for the Treatment of Pulmonary Fibrotic Diseases” (J Med Chem, 2021):
Converted amounts (≈) assume the structure as drawn. Each block holds one compound with its values, some of them ahead of it.

How the values were obtained:
[1] = Elimination half life in cynomolgus monkey at 3 mg/kg, po or 1 mg/kg, iv measured up to 24 hrs by LC-MS/MS analysis; type: ADME, organism-based, Macaca fascicularis; details: in vivo, read-out: beta t1/2 (converted)
[2] = Elimination half life in CD-1 mouse at 3 mg/kg, po or 1 mg/kg, iv measured up to 24 hrs by LC-MS/MS analysis; type: ADME, organism-based; details: in vivo, read-out: beta t1/2 (converted)
[3] = Hepatobiliary toxicity in Cynomolgus monkey assessed as bile duct hyperplasia measured up to 1 month; set-up: species or system Macaca fascicularis; details: in vivo, time <=1 months
[4] = Hepatobiliary toxicity in Cynomolgus monkey assessed as cholestasis measured up to 1 month; set-up: species or system Macaca fascicularis; details: time <=1 months
[5] = Oral bioavailability in Sprague-Dawley rat at 3 mg/kg measured up to 24 hrs by LC-MS/MS analysis; type: ADME, organism-based; details: in vivo
[6] = biological target: T1, hERG (Homo sapiens, UniProt Q12809); experiment: Inhibition of hERG at 10 uM by electrophysiological assay relative to control
T1 sequence (Q12809 whole entry): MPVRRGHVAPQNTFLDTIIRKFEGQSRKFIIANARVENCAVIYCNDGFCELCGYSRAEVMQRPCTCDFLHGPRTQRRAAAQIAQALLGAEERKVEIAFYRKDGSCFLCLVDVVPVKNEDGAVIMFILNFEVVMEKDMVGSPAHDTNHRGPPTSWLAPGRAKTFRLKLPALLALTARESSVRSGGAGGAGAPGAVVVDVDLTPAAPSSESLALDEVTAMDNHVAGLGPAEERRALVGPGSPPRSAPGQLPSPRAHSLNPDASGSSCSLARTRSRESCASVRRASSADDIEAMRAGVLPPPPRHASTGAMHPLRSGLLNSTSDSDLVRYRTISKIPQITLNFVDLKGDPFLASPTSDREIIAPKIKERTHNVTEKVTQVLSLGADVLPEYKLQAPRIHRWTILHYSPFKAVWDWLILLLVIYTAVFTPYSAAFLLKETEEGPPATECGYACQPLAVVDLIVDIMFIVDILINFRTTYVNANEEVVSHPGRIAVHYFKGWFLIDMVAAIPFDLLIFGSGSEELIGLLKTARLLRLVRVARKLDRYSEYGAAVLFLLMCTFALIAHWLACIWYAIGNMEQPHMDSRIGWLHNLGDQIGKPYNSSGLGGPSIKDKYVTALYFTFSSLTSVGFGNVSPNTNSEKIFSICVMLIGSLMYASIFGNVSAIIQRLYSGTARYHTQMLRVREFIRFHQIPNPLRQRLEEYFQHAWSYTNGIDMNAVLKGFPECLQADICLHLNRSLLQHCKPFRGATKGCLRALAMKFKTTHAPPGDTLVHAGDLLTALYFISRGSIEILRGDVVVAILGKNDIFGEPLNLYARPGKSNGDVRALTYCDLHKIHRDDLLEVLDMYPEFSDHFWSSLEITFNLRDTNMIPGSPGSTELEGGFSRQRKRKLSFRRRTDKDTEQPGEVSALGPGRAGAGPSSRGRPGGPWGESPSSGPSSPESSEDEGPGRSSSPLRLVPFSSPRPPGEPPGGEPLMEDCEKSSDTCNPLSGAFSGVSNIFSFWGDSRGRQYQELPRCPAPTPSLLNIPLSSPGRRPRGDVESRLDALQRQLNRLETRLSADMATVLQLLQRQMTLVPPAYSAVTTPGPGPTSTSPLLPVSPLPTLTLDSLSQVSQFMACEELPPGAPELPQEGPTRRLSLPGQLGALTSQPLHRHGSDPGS

[7] = Hepatobiliary toxicity in Cynomolgus monkey assessed as cholangitis measured up to 1 month; set-up: species or system Macaca fascicularis; details: in vivo, time <=1 months
[8] = biological target: CYP2B6 (Homo sapiens, UniProt P20813); experiment: Induction of CYP2B6 in human hepatocytes; type: ADME, cell-based, Hepatocyte
CYP2B6, sequence (P20813 whole entry): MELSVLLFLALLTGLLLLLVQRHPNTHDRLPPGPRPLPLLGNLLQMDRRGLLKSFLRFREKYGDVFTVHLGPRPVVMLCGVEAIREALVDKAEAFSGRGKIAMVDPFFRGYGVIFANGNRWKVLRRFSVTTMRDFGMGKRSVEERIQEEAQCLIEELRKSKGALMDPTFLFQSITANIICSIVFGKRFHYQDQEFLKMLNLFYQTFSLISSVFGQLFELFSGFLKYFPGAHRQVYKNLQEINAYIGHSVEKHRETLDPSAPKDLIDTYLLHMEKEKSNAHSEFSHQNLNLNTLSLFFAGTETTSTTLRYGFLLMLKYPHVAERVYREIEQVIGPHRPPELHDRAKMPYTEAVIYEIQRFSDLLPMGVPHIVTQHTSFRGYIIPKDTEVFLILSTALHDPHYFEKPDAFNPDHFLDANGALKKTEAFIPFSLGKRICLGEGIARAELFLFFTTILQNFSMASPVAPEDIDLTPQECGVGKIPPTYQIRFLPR

[9] = Metabolic stability in liver microsomes (unknown origin) assessed as half life; type: ADME, Microsome
[10] = Oral bioavailability in CD-1 mouse at 3 mg/kg measured up to 24 hrs by LC-MS/MS analysis; type: ADME, organism-based; details: in vivo
[11] = Drug metabolism in human hepatocytes assessed as formation of acyl glucuronide metabolites at 10 uM measured after 2 hrs by LC/UV/MS analysis; type: ADME, cell-based, Hepatocyte
[12] = AUC (0 to 24 hrs) in Cynomolgus monkey plasma at 500 mg/kg, po administered for 4 weeks; type: ADME, organism-based, Macaca fascicularis; set-up: route oral, time 4 weeks, dose 500 mg/kg
[13] = Drug metabolism in human hepatocytes assessed as carbamate hydrolytic product formation at 10 uM measured after 2 hrs by LC/UV/MS analysis; type: ADME, cell-based, Hepatocyte
[14] = AUC (0 to 24 hrs) in Cynomolgus monkey plasma at 150 mg/kg/day; type: ADME, organism-based, Macaca fascicularis; set-up: time < 24 hr, dose 150 mg/kg/day
[15] = system: Rattus norvegicus; experiment: (§1) Anti-fibrotic activity in Sprague-Dawley rat model of bleomycin-induced lung fibrosis assessed as decrease in bleomycin-induced collagen deposition at 30 mg/kg, po BID followed by tracheal administration of bleomycin on day 8 and measured on day 21 by Masson's trichrome staining based HALO densitometric analysis relative to control; type: functional; set-up: scale not given: the % may be the effect or the level left
[16] = Drug metabolism in monkey hepatocytes assessed as carbamate hydrolytic product formation at 10 uM measured after 2 hrs by LC/UV/MS analysis; type: ADME, cell-based, Macaca mulatta, Hepatocyte; details: rhesus monkey
[17] = Drug metabolism in monkey hepatocytes assessed as N-demethylation metabolite formation at 10 uM measured after 2 hrs by LC/UV/MS analysis; type: ADME, cell-based, Macaca mulatta, Hepatocyte; details: rhesus monkey
[18] = AUC (0 to 24 hrs) in Sprague-Dawley rat plasma at 300 mg/kg/day; type: ADME, organism-based; set-up: time < 24 hr, dose 300 mg/kg/day
[19] = system: Rattus norvegicus; experiment: as §1, with “10” for “30”; type: functional; set-up: scale not given: the % may be the effect or the level left; details: time 21 day
[20] = Aqueous solubility of compound at pH 7.5; type: physicochemical
[21] = animal or person; details: Mus musculus, CD-1
[22] = Hepatobiliary toxicity in Cynomolgus monkey assessed as cholestasis at up to 150 mg/kg/day measured up to 9 month; type: organism-based, Macaca fascicularis; details: in vivo, time <=9 months
[23] = biological target: T1, hERG; experiment: Inhibition of hERG at 30 uM by electrophysiological assay relative to control
[24] = Hepatobiliary toxicity in Sprague-Dawley rat assessed as cholestasis at up to 100 mg/kg/day measured up to 6 month; type: organism-based; details: in vivo, time <=6 months
[25] = Drug metabolism in rat hepatocytes assessed as N-demethylation metabolite formation at 10 uM measured after 2 hrs by LC/UV/MS analysis; type: ADME, cell-based, Hepatocyte
[26] = Hepatobiliary toxicity in Sprague-Dawley rat assessed as cholangitis at up to 100 mg/kg/day measured up to 6 months; type: organism-based; details: in vivo
[27] = Drug metabolism in dog hepatocytes assessed as carbamate hydrolytic product formation at 10 uM measured after 2 hrs by LC/UV/MS analysis; type: ADME, cell-based, Canis lupus familiaris, Hepatocyte
[28] = Hepatobiliary toxicity in Cynomolgus monkey assessed as cholangitis at up to 150 mg/kg/day measured up to 9 months; type: organism-based, Macaca fascicularis; details: in vivo
[29] = Drug metabolism in mouse hepatocytes assessed as carbamate hydrolytic product formation at 10 uM measured after 2 hrs by LC/UV/MS analysis; type: ADME, cell-based, Hepatocyte
[30] = system: Rattus norvegicus; experiment: as §1, with “3” for “30”; type: functional; set-up: scale not given: the % may be the effect or the level left; details: time 21 day
[31] = animal or person; details: Mus musculus, CD-1; remark: listed apart in the source
[32] = biological target: Lysophosphatidic acid receptor 1 (Mus musculus) (UniProt P61793); experiment: Antagonist activity at mouse LPA1 receptor expressed in CHO cells assessed as inhibition of LPA stimulated calcium flux incubated for 20 mins followed by LPA stimulation and measured for 90 seconds; type: functional, cell-based; details: filed as antagonist
Lysophosphatidic acid receptor 1 (Mus musculus), sequence (P61793 whole entry): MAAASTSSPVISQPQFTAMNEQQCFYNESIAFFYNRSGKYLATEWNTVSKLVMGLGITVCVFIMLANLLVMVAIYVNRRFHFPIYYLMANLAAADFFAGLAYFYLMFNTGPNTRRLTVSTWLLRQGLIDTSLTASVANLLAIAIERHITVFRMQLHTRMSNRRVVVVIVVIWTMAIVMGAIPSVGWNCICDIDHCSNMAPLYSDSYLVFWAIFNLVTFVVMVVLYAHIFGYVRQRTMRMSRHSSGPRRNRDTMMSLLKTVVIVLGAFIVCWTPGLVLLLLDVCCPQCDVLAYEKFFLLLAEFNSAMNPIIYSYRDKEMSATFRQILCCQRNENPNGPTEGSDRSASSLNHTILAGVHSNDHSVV

[33] = Hepatobiliary toxicity in Sprague-Dawley rat assessed as bile duct hyperplasia at up to 100 mg/kg/day measured up to 6 months; type: organism-based; details: in vivo
[34] = Hepatobiliary toxicity in Cynomolgus monkey assessed as bile duct hyperplasia at up to 150 mg/kg/day measured up to 9 months; type: organism-based, Macaca fascicularis; details: in vivo
[35] = Drug metabolism in human hepatocytes assessed as N-demethylation metabolite formation at 10 uM measured after 2 hrs by LC/UV/MS analysis; type: ADME, cell-based, Hepatocyte
[36] = system: Rattus norvegicus; experiment: Anti-fibrotic activity in Sprague-Dawley rat model of bleomycin-induced lung fibrosis assessed as decrease in bleomycin-induced collagen deposition by measuring decrease in PSR-stained lung sections at 30 mg/kg, po BID for 21 days followed by tracheal administration of bleomycin by PSR staining based HALO densitometric analysis relative to control; type: functional; set-up: scale not given: the % may be the effect or the level left; details: time 21 day
[37] = AUC (0 to 24 hrs) in Cynomolgus monkey plasma at 50 mg/kg, po administered for 7 days; type: ADME, organism-based, Macaca fascicularis; set-up: route oral, time 7 day, dose 50 mg/kg
[38] = biological target: hERG (KCNH2) (Homo sapiens, UniProt Q12809); experiment: Inhibition of hERG at 15 uM by electrophysiological assay relative to control
hERG (KCNH2), sequence (Q12809 whole entry): as the sequence (Q12809 whole entry) above

- half-life [1]: 14 h
- half-life [2]: 1.5 h
- bioavailability [5]: 69%
- IC50 [8]: > 50 µM
- half-life [9]: > 0.917 h
- bioavailability [10]: 91%
- Drug metabolism [11]: Metabolite_Detected
- AUC at 672 h [12]: 962 µg·h/mL
- Drug metabolism [13]: Metabolite_Notdetected
Compound: Cc1nc(-c2nnn(C)c2COC(=O)N(C)CC2CCC2)ccc1O[C@H]1CCC[C@H](C(=O)O)C1
- Activity [3]: Non-Toxic
- Activity [4]: Non-Toxic
- inhibition at 10 µM [6]: 6%
- Activity [7]: Non-Toxic

- AUC at 24 h [14]: 1140 µg·h/mL
- Drug metabolism [16]: Metabolite_Detected
- Drug metabolism [17]: Metabolite_Detected
- AUC at 24 h [18]: 1140 µg·h/mL
- half-life [1]: 11 h
- half-life [2]: 2.5 h
- solubility [20]: 6210 µg/mL (≈ 13.9 mM)
- IC50 [21]: 48 µM
- bioavailability [5]: 100%
- Drug metabolism [25]: Metabolite_Detected
- Drug metabolism [27]: Metabolite_Detected
- Drug metabolism [29]: Metabolite_Detected
- bioavailability [10]: 70%
- IC50 [31]: 174 µM
- Kb [32]: 0.004 µM
- Drug metabolism [13]: Metabolite_Detected
- Drug metabolism [35]: Metabolite_Detected
Compound: CCCN(C)C(=O)OCc1c(-c2ccc(O[C@H]3CCC[C@H](C(=O)O)C3)c(C)n2)nnn1C [ADMILPARANT]
- Activity [15]: 41%
- Activity [19]: 56%
- Activity [22]: Non-Toxic
- inhibition at 30 µM [23]: 35%
- Activity [24]: Non-Toxic
- Activity [26]: Non-Toxic
- Activity [28]: Non-Toxic
- Activity [30]: 48%
- Activity [33]: Non-Toxic
- Activity [34]: Non-Toxic

Compound: Cc1noc(-c2ccc(-c3ccc(C4(C(=O)O)CC4)cc3)cc2)c1NC(=O)O[C@H](C)c1ccccc1 [BMS-986020]
- Activity [36]: 63%
- AUC at 168 h [37]: 74 µg·h/mL
- IC50 [8]: > 50 µM
- Kb [32]: 0.0037 µM
- inhibition at 15 µM [38]: 7%
